Assay results reported in patent US11337423B1, “Candida auris disinfectant” (priority 2021, dated 2022).

Legend:
Experiment in all cases: zone of inhibition in vitro test
Assay type in all cases: cell-based
[1] = tested on: Lactobacillus casei ATCC 393
[2] = tested on: Salmonella enterica ATCC 14028
[3] = tested on: Methicillin Resistant Staphylococcus aureus ATCC 33591
[4] = tested on: Propionibacterium acnes ATCC 6919
MRSE ATCC 51625 = tested on: MRSE ATCC 51625
Candida auris CDC B11903 = tested on: Candida auris CDC B11903
[5] = tested on: Candida albicans ATCC 10231
[6] = tested on: Escerichia coli ATCC 43895
[7] = tested on: Pseudomonas aeruqinosa ATCC 9-27
[8] = tested on: Klebsiella pneumoniae ATCC 4352
[9] = tested on: Staphylococcus aureus ATCC 6538
[10] = tested on: Clostridium perfrinqens ATCC 13124
[11] = tested on: Staphyloccus epidermidis ATCC 12228
Escherichia coli 0157:H7 = tested on: Escherichia coli 0157:H7
[12] = tested on: Escherichia coli ATCC 8739
[13] = Candida auris CDC 811903, Table 2

CCOC(=O)c1ccc(O)c(O)c1 [Ethyl ester of protocatechuic acid, 3,4-Dihydroxybenzoic acid ethyl ester]
Average (mm) [1]: 23 mm | RESULTS (mm) Plate 1 [1]: 24 mm | RESULTS (mm) Plate 2 [1]: 22 mm | Average (mm) [2]: 28 mm | RESULTS (mm) Plate 1 [2]: 28 mm | RESULTS (mm) Plate 2 [2]: 28 mm | Average (mm) [3]: 26.5 mm | RESULTS (mm) Plate 1 [3]: 28 mm | RESULTS (mm) Plate 2 [3]: 25 mm | Average (mm) [4]: 20 mm | RESULTS (mm) Plate 1 [4]: 22 mm | RESULTS (mm) Plate 2 [4]: 18 mm | Average (mm) (MRSE ATCC 51625): 23 mm | RESULTS (mm) Plate 1 (MRSE ATCC 51625): 23 mm | RESULTS (mm) Plate 2 (MRSE ATCC 51625): 22 mm | Average (mm) (Candida auris CDC B11903; [13]): 29.5 mm | RESULTS (mm) Plate 2 (Candida auris CDC B11903; [13]): 28 mm | RESULTS (mm) Plate I (Candida auris CDC B11903; [13]): 31 mm | topical disinfection for Candida auris (Candida auris CDC B11903; conclusion in words from the in vitro test results): excellent agent for topical disinfection | Average (mm) [5]: 29.5 mm | RESULTS (mm) Plate 1 [5]: 31 mm | RESULTS (mm) Plate 2 [5]: 28 mm | Average (mm) [6]: 27 mm | RESULTS (mm) Plate 1 [6]: 25 mm | RESULTS (mm) Plate 2 [6]: 28 mm | Average (mm) [7]: 11 mm | RESULTS (mm) Plate 1 [7]: 11 mm | RESULTS (mm) Plate 2 [7]: 11 mm | Average (mm) [8]: 27 mm | RESULTS (mm) Plate 1 [8]: 28 mm | RESULTS (mm) Plate 2 [8]: 26 mm | Average (mm) [9]: 27 mm | RESULTS (mm) Plate 1 [9]: 26 mm | RESULTS (mm) Plate 2 [9]: 28 mm | Average (mm) [10]: 52 mm | RESULTS (mm) Plate 1 [10]: 50 mm | RESULTS (mm) Plate 2 [10]: 54 mm | Average (mm) [11]: 35 mm | RESULTS (mm) Plate 1 [11]: 35 mm | RESULTS (mm) Plate 2 [11]: 35 mm | Average (mm) (Escherichia coli 0157:H7): 27 mm | RESULTS (mm) Plate 1 (Escherichia coli 0157:H7): 26 mm | RESULTS (mm) Plate 2 (Escherichia coli 0157:H7): 28 mm | Average (mm) [12]: 23 mm | RESULTS (mm) Plate 1 [12]: 22 mm | RESULTS (mm) Plate 2 [12]: 24 mm

O=C(O)c1ccc(O)c(O)c1 [Protocatechuic acid, reference compound]
Average (mm) [1]: 21 mm | RESULTS (mm) Plate 1 [1]: 18 mm | RESULTS (mm) Plate 2 [1]: 24 mm | Average (mm) [2]: 14 mm | RESULTS (mm) Plate 1 [2]: 15 mm | RESULTS (mm) Plate 2 [2]: 13 mm | Average (mm) [3]: 21 mm | RESULTS (mm) Plate 1 [3]: 21 mm | RESULTS (mm) Plate 2 [3]: 21 mm | Average (mm) [4]: 21 mm | RESULTS (mm) Plate 1 [4]: 23 mm | RESULTS (mm) Plate 2 [4]: 19 mm | Average (mm) (MRSE ATCC 51625): 18 mm | RESULTS (mm) Plate 1 (MRSE ATCC 51625): 15 mm | RESULTS (mm) Plate 2 (MRSE ATCC 51625): 20 mm | resistance of Candida auris to the chemical (Candida auris CDC B11903; conclusion in words): very resistant | Average (mm) [5]: 18 mm | RESULTS (mm) Plate 1 [5]: 21 mm | RESULTS (mm) Plate 2 [5]: 15 mm | Average (mm) [6]: 13 mm | RESULTS (mm) Plate 1 [6]: 14 mm | RESULTS (mm) Plate 2 [6]: 12 mm | Average (mm) [7]: 13 mm | RESULTS (mm) Plate 1 [7]: 13 mm | RESULTS (mm) Plate 2 [7]: 13 mm | Average (mm) [8]: 14.5 mm | RESULTS (mm) Plate 1 [8]: 16 mm | RESULTS (mm) Plate 2 [8]: 13 mm | Average (mm) [9]: 18 mm | RESULTS (mm) Plate 1 [9]: 18 mm | RESULTS (mm) Plate 2 [9]: 18 mm | Average (mm) [10]: 52 mm | RESULTS (mm) Plate 1 [10]: 54 mm | RESULTS (mm) Plate 2 [10]: 50 mm | Average (mm) [11]: 27 mm | RESULTS (mm) Plate 1 [11]: 26 mm | RESULTS (mm) Plate 2 [11]: 28 mm | Average (mm) (Escherichia coli 0157:H7): 15.5 mm | RESULTS (mm) Plate 1 (Escherichia coli 0157:H7): 17 mm | RESULTS (mm) Plate 2 (Escherichia coli 0157:H7): 14 mm | Average (mm) [12]: 14 mm | RESULTS (mm) Plate 1 [12]: 14 mm | RESULTS (mm) Plate 2 [12]: 14 mm
